From the supplement of paper PMC10307832

How the values were obtained:
Test in all cases: relative viability (nuclei count vs DMSO), 5 days (fraction); higher = more cells survive
Tipifarnib + Trametinib = compound: Cn1cncc1[C@@](N)(c1ccc(Cl)cc1)c1ccc2c(c1)c(-c1cccc(Cl)c1)cc(=O)n2C [Tipifarnib] + CC(=O)Nc1cccc(-n2c(=O)n(C3CC3)c(=O)c3c(Nc4ccc(I)cc4F)n(C)c(=O)c(C)c32)c1 [Trametinib] (partner 0.02 µM)
Procedure, shortened: (§1)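 Relative viability was taken as the ratio of nuclei in treated wells to nuclei in vehicle wells. Lung cancer cell lines in 1536-well plates received compounds by pin tool one day after seeding, either one drug alone or a fixed anchor-drug dose plus five library-drug doses (not always all listed) in √10 steps. Nuclei were counted on 4× images after 5 days of treatment, and values are medians of duplicate plates.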

Tipifarnib + OSI-027 = compound: Cn1cncc1[C@@](N)(c1ccc(Cl)cc1)c1ccc2c(c1)c(-c1cccc(Cl)c1)cc(=O)n2C [Tipifarnib] + COc1cccc2cc(-c3nc([C@H]4CC[C@H](C(=O)O)CC4)n4ncnc(N)c34)[nH]c12 [OSI-027] (partner 0.5 µM)
Procedure, shortened: as §1

Tipifarnib + Lapatinib = compound: Cn1cncc1[C@@](N)(c1ccc(Cl)cc1)c1ccc2c(c1)c(-c1cccc(Cl)c1)cc(=O)n2C [Tipifarnib] + CS(=O)(=O)CCNCc1ccc(-c2ccc3ncnc(Nc4ccc(OCc5cccc(F)c5)c(Cl)c4)c3c2)o1 [Lapatinib] (partner 2 µM)
Procedure, shortened: as §1

Tipifarnib + Linsitinib = compound: Cn1cncc1[C@@](N)(c1ccc(Cl)cc1)c1ccc2c(c1)c(-c1cccc(Cl)c1)cc(=O)n2C [Tipifarnib] + C[C@]1(O)C[C@@H](c2nc(-c3ccc4ccc(-c5ccccc5)nc4c3)c3c(N)nccn32)C1 [Linsitinib] (partner 1 µM)
Procedure, shortened: as §1

| Cell Line | relative viability (Tipifarnib + Trametinib; first compound 0.01 µM) | relative viability (Tipifarnib + Trametinib; first compound 0.03162 µM) | relative viability (Tipifarnib + Trametinib; first compound 0.1 µM) | relative viability (Tipifarnib + Trametinib; first compound 0.3162 µM) | relative viability (Tipifarnib + Trametinib; first compound 1 µM) | relative viability (Tipifarnib + OSI-027; first compound 0.01 µM) | relative viability (Tipifarnib + OSI-027; first compound 0.03162 µM) | relative viability (Tipifarnib + OSI-027; first compound 0.1 µM) | relative viability (Tipifarnib + OSI-027; first compound 0.3162 µM) | relative viability (Tipifarnib + OSI-027; first compound 1 µM) | relative viability (Tipifarnib + Lapatinib; first compound 0.01 µM) | relative viability (Tipifarnib + Lapatinib; first compound 0.03162 µM) | relative viability (Tipifarnib + Lapatinib; first compound 0.1 µM) | relative viability (Tipifarnib + Lapatinib; first compound 0.3162 µM) | relative viability (Tipifarnib + Lapatinib; first compound 1 µM) | relative viability (Tipifarnib + Linsitinib; first compound 0.01 µM) | relative viability (Tipifarnib + Linsitinib; first compound 0.03162 µM) | relative viability (Tipifarnib + Linsitinib; first compound 0.1 µM) | relative viability (Tipifarnib + Linsitinib; first compound 0.3162 µM) | relative viability (Tipifarnib + Linsitinib; first compound 1 µM) |
| --- | --- | --- | --- | --- | --- | --- | --- | --- | --- | --- | --- | --- | --- | --- | --- | --- | --- | --- | --- | --- |
| LXF-289 | 0.71 | 0.684 | 0.695 | 0.557 | 0.64 | 0.951 | 0.699 | 0.709 | 0.6 | 0.293 | 0.88 | 0.865 | 0.855 | 0.787 | 0.708 | 0.989 | 0.951 | 0.865 | 0.876 | 0.897 |
| NCI-H23 | 0.368 | 0.493 | 0.398 | 0.292 | 0.204 | 0.583 | 0.384 | 0.342 | 0.29 | 0.26 | 1.4 | 0.949 | 0.717 | 0.439 | 0.23 | 0.747 | 0.573 | 0.44 | 0.331 | 0.39 |
| NCI-H322M | 0.492 | 0.565 | 0.519 | 0.542 | 0.548 | 0.5 | 0.492 | 0.513 | 0.415 | 0.445 | 0.637 | 0.662 | 0.622 | 0.688 | 0.505 | 0.934 | 0.921 | 0.96 | 0.672 | 0.853 |
| NCI-H358 | 0.143 | 0.102 | 0.133 | 0.107 | 0.135 | 0.803 | 0.788 | 0.429 | 0.385 | 0.178 | 0.455 | 0.444 | 0.443 | 0.424 | 0.352 | 0.782 | 0.691 | 0.664 | 0.512 | 0.48 |
| NCI-H460 | 0.142 | 0.0861 | 0.0817 | 0.0529 | 0.0386 | 0.669 | 0.626 | 0.257 | 0.209 | 0.0157 | 0.987 | 0.431 | 0.285 | 0.195 | 0.0315 | 0.841 | 0.639 | 0.173 | 0.146 | 0.0526 |
| NCI-H520 | 0.87 | 0.642 | 0.7 | 0.521 | 0.315 | 0.214 | 0.262 | 0.187 | 0.19 | 0.199 | 0.996 | 0.79 | 0.838 | 0.708 | 0.321 | 1.11 | 0.849 | 0.987 | 0.673 | 0.737 |
| NCI-H596 | 0.759 | 1 | 0.593 | 0.53 | 0.527 | 0.725 | 0.627 | 0.606 | 0.398 | 0.506 | 0.99 | 1.09 | 1.04 | 0.868 | 0.608 | 1 | 1.03 | 0.854 | 0.934 | 0.844 |
| NCI-H647 | 0.475 | 0.419 | 0.418 | 0.254 | 0.225 | 0.409 | 0.585 | 0.438 | 0.299 | 0.101 | 1.17 | 0.792 | 0.693 | 0.668 | 0.176 | 1.35 | 1.04 | 0.649 | 0.557 | 0.609 |
| NCI-H650 | 1.09 | 0.911 | 0.841 | 0.696 | 0.549 | 0.486 | 0.375 | 0.297 | 0.305 | 0.266 | 0.719 | 0.837 | 0.599 | 0.434 | 0.345 | 0.825 | 0.706 | 0.662 | 0.526 | 0.348 |
| NCI-H661 | 0.627 | 0.487 | 0.482 | 0.396 | 0.456 | 0.696 | 0.601 | 0.439 | 0.33 | 0.339 | 0.636 | 0.56 | 0.375 | 0.424 | 0.397 | 0.754 | 0.616 | 0.502 | 0.511 | 0.438 |
| NCI-H727 | 0.425 | 0.395 | 0.379 | 0.384 | 0.404 | 0.599 | 0.535 | 0.459 | 0.477 | 0.427 | 1.01 | 0.843 | 0.755 | 0.578 | 0.607 | 0.285 | 0.334 | 0.321 | 0.3 | 0.259 |
| NCI-H838 | 0.47 | 0.483 | 0.434 | 0.431 | 0.374 | 0.357 | 0.339 | 0.23 | 0.231 | 0.184 | 0.965 | 0.952 | 0.644 | 0.615 | 0.393 | 0.955 | 0.826 | 0.684 | 0.628 | 0.6 |
| NCI-H1355 | 0.486 | 0.387 | 0.357 | 0.352 | 0.339 | 0.37 | 0.344 | 0.295 | 0.262 | 0.26 | 0.999 | 0.871 | 0.746 | 0.67 | 0.516 | 0.861 | 0.896 | 0.649 | 0.541 | 0.69 |
| NCI-H1395 | 1.25 | 0.966 | 0.946 | 0.862 | 0.967 | 0.622 | 0.545 | 0.494 | 0.517 | 0.413 | 1.03 | 0.85 | 0.82 | 0.68 | 0.48 | 1.43 | 1.14 | 0.888 | 0.869 | 0.783 |
| NCI-H1437 | 0.591 | 0.596 | 0.619 | 0.406 | 0.446 | 0.823 | 0.728 | 0.488 | 0.446 | 0.33 | 0.873 | 0.864 | 0.738 | 0.727 | 0.248 | 1.15 | 0.993 | 1.04 | 0.816 | 0.698 |
| NCI-H1651 | 0.827 | 0.754 | 0.781 | 0.832 | 0.802 | 0.65 | 0.729 | 0.673 | 0.558 | 0.456 | 0.931 | 0.799 | 0.919 | 0.85 | 0.426 | 1.18 | 1.06 | 0.964 | 0.892 | 0.961 |
